From PubChem BioAssay AID256 (DTP/NCI, 2004)
Inconclusive results and toxic doses are left out. The calls were made as follows: active = survival T/C of 150% or more; inactive = T/C below 125% in these data.

Tested on: CD2F1 mice, L1210 leukemia ip, survival T/C
Assay: NCI In Vivo Anticancer Drug Screen. Data for tumor model L1210 Leukemia (intraperitoneal) in CD2F1 (CDF1) mice
Settings: higher = longer survival
Method in brief: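 Tumor-bearing mice (transplanted tumor) were split into treated and vehicle control groups, and the measured endpoint of each treated group was divided by that of its vehicle controls.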

[1] = endpoint: mean survival time, dose: 100.0 mg/kg/injection, schedule: Q01DX009 (ip), vehicle: saline with Tween-80
[2] = endpoint: mean survival time, dose: 200.0 mg/kg/injection, schedule: Q01DX009 (ip), vehicle: saline with Tween-80
[3] = endpoint: mean survival time, dose: 400.0 mg/kg/injection, schedule: Q01DX009 (ip), vehicle: saline with Tween-80
[4] = endpoint: mean survival time, dose: 25.0 mg/kg/injection, schedule: Q01DX009 (ip), vehicle: Klucel (hydroxypropylcellulose) (HPC)
[5] = endpoint: mean survival time, dose: 50.0 mg/kg/injection, schedule: Q01DX009 (ip), vehicle: Klucel (hydroxypropylcellulose) (HPC)
[6] = endpoint: mean survival time, dose: 100.0 mg/kg/injection, schedule: Q01DX001 (ip), vehicle: saline with Tween-80
[7] = endpoint: mean survival time, dose: 100.0 mg/kg/injection, schedule: Q04DX003 (ip), vehicle: saline with Tween-80
[8] = endpoint: mean survival time, dose: 200.0 mg/kg/injection, schedule: Q01DX001 (ip), vehicle: saline with Tween-80
[9] = endpoint: mean survival time, dose: 200.0 mg/kg/injection, schedule: Q04DX003 (ip), vehicle: saline with Tween-80
[10] = endpoint: mean survival time, dose: 400.0 mg/kg/injection, schedule: Q01DX001 (ip), vehicle: saline with Tween-80
[11] = endpoint: mean survival time, dose: 400.0 mg/kg/injection, schedule: Q04DX003 (ip), vehicle: saline with Tween-80
[12] = endpoint: mean survival time, dose: 100.0 mg/kg/injection, schedule: Q01DX009 (ip), vehicle: Klucel (hydroxypropylcellulose) (HPC)
[13] = endpoint: mean survival time, dose: 200.0 mg/kg/injection, schedule: Q01DX009 (ip), vehicle: Klucel (hydroxypropylcellulose) (HPC)

Measured: T/C

CCN(CC)CCC(=O)c1ccccc1
inactive: endpoint: mean survival time, dose: 3.12 mg/kg/injection, schedule: Q01DX009 (ip), vehicle: saline with Tween-80 100 % of control | endpoint: mean survival time, dose: 3.12 mg/kg/injection, schedule: Q01DX009 (ip), vehicle: suspension in saline 96 % of control | endpoint: mean survival time, dose: 6.25 mg/kg/injection, schedule: Q01DX009 (ip), vehicle: saline with Tween-80 103 % of control | endpoint: mean survival time, dose: 6.25 mg/kg/injection, schedule: Q01DX009 (ip), vehicle: suspension in saline 95 % of control | endpoint: mean survival time, dose: 12.5 mg/kg/injection, schedule: Q01DX009 (ip), vehicle: saline with Tween-80 102 % of control | endpoint: mean survival time, dose: 12.5 mg/kg/injection, schedule: Q01DX009 (ip), vehicle: saline 90 % of control | endpoint: mean survival time, dose: 12.5 mg/kg/injection, schedule: Q01DX009 (ip), vehicle: suspension in saline 96 % of control | endpoint: mean survival time, dose: 25.0 mg/kg/injection, schedule: Q01DX009 (ip), vehicle: saline with Tween-80 103 % of control | endpoint: mean survival time, dose: 25.0 mg/kg/injection, schedule: Q01DX009 (ip), vehicle: saline 94 % of control | endpoint: mean survival time, dose: 25.0 mg/kg/injection, schedule: Q01DX009 (ip), vehicle: suspension in saline 106 % of control | endpoint: mean survival time, dose: 50.0 mg/kg/injection, schedule: Q01DX009 (ip), vehicle: saline with Tween-80 101 % of control | endpoint: mean survival time, dose: 50.0 mg/kg/injection, schedule: Q01DX009 (ip), vehicle: saline 92 % of control | endpoint: mean survival time, dose: 50.0 mg/kg/injection, schedule: Q01DX009 (ip), vehicle: suspension in saline 106 % of control | [1] 93 % of control

CCCCCCCCCCCCCCNCCC(=O)O
inactive: endpoint: mean survival time, dose: 75.0 mg/kg/injection, schedule: Q01DX001 (ip), vehicle: saline 98 % of control | endpoint: mean survival time, dose: 150.0 mg/kg/injection, schedule: Q01DX001 (ip), vehicle: saline 106 % of control

C=C(Br)CNC(=O)C(C)C
inactive: endpoint: mean survival time, dose: 5.0 mg/kg/injection, schedule: Q01DX009 (ip), vehicle: saline with Tween-80 98 % of control | endpoint: mean survival time, dose: 10.0 mg/kg/injection, schedule: Q01DX009 (ip), vehicle: saline with Tween-80 100 % of control | endpoint: mean survival time, dose: 20.0 mg/kg/injection, schedule: Q01DX009 (ip), vehicle: saline with Tween-80 100 % of control

C=C1C(=O)O[C@@H]2[C@H]1[C@@H](OC(C)=O)C[C@H](C)[C@@H]1CCC(=O)[C@@]21C
inactive: [1] 93 % of control | [2] 89 % of control | [3] 92 % of control

N#CCc1nc2ccccc2[nH]1
inactive: [4] 98 % of control | [5] 93 % of control

Cc1cccc(Cl)c1C#N
inactive: [6] 104 % of control | [1] 94 % of control | [7] 107 % of control | [8] 106 % of control | [2] 100 % of control | [9] 101 % of control | [10] 106 % of control | [3] 90 % of control | [11] 100 % of control

COc1ccc(C(=O)N/N=C(\C)[C@]2(O)Cc3c(O)c4c(c(O)c3[C@@H](OC3CC(N)C(O)C(C)O3)C2)C(=O)c2c(OC)cccc2C4=O)cc1 (stereo partly drawn)
inactive: endpoint: mean survival time, dose: 0.5 mg/kg/injection, schedule: Q01DX009 (ip), vehicle: water 103 % of control | endpoint: mean survival time, dose: 1.0 mg/kg/injection, schedule: Q01DX009 (ip), vehicle: water 112 % of control | endpoint: mean survival time, dose: 2.0 mg/kg/injection, schedule: Q01DX009 (ip), vehicle: water 118 % of control | endpoint: mean survival time, dose: 4.0 mg/kg/injection, schedule: Q01DX009 (ip), vehicle: water 121 % of control

CCC[CH2][Sn]([CH2]CCC)([CH2]CCC)[CH2]CC(=O)OC
inactive: [7] 101 % of control | [9] 95 % of control

COc1ccc(NC(=O)NCCCl)cc1
inactive: [6] 90 % of control | [8] 94 % of control

C1=NC(c2ccccn2)=NNC(c2ccccn2)=C1c1ccccc1
inactive: endpoint: mean survival time, dose: 12.5 mg/kg/injection, schedule: Q01DX009 (ip), vehicle: Klucel (hydroxypropylcellulose) (HPC) 97 % of control | [4] 100 % of control | [5] 95 % of control | [12] 100 % of control | [13] 97 % of control

N#C/C(=C1C=C/C(=N\O)C(Cl)=C\1)c1ccccc1
inactive: [1] 103 % of control | [7] 88 % of control | [2] 88 % of control | [9] 93 % of control | [11] 96 % of control

COCC1OC(OC)C(OC(=O)c2ccccc2)C(OC(=O)c2ccccc2)C1OC (stereo not drawn)
inactive: [6] 90 % of control | [8] 91 % of control | [10] 90 % of control

CC(=O)C(C[CH2][Hg][Cl])C(C)=O
inactive: endpoint: mean survival time, dose: 75.0 mg/kg/injection, schedule: Q01DX001 (ip), vehicle: other 92 % of control

COC(=O)C1C2CCC(C2)C1C(=O)OC (stereo not drawn)
inactive: [7] 97 % of control | [9] 101 % of control | [11] 93 % of control

O=C(O)c1cnc(Cl)nc1Nc1ccccc1I
inactive: [8] 86 % of control

OCC1OC(c2cccs2)C(O)C1O (stereo not drawn)
inactive: endpoint: median survival time, dose: 12.5 mg/kg/injection, schedule: Q01DX005 (ip), vehicle: saline 102 % of control | endpoint: median survival time, dose: 25.0 mg/kg/injection, schedule: Q01DX005 (ip), vehicle: saline 98 % of control | endpoint: median survival time, dose: 50.0 mg/kg/injection, schedule: Q01DX005 (ip), vehicle: saline 92 % of control | endpoint: median survival time, dose: 100.0 mg/kg/injection, schedule: Q01DX005 (ip), vehicle: saline 98 % of control | endpoint: median survival time, dose: 200.0 mg/kg/injection, schedule: Q01DX005 (ip), vehicle: saline 106 % of control

Nc1nc2c([nH]c(=S)n2C2OC(CO)C(O)C2O)c(=O)[nH]1 (stereo not drawn)
inactive: endpoint: mean survival time, dose: 100.0 mg/kg/injection, schedule: Q04DX002 (ip), vehicle: saline with Tween-80 100 % of control | endpoint: mean survival time, dose: 200.0 mg/kg/injection, schedule: Q04DX002 (ip), vehicle: saline with Tween-80 97 % of control | endpoint: mean survival time, dose: 400.0 mg/kg/injection, schedule: Q04DX002 (ip), vehicle: saline with Tween-80 97 % of control

CCCCNS(=O)(=O)c1ccccc1
inactive: [7] 97 % of control | [9] 96 % of control

CCN(CC)c1cc(C(=O)O)cc(N(CC)CC)n1
inactive: endpoint: median survival time, dose: 6.25 mg/kg/injection, schedule: Q01DX009 (ip), vehicle: other 104 % of control | endpoint: median survival time, dose: 12.5 mg/kg/injection, schedule: Q01DX009 (ip), vehicle: other 107 % of control | endpoint: median survival time, dose: 50.0 mg/kg/injection, schedule: Q01DX005 (ip), vehicle: acid diluted with saline 103 % of control | endpoint: median survival time, dose: 50.0 mg/kg/injection, schedule: Q01DX009 (ip), vehicle: other 108 % of control | endpoint: median survival time, dose: 100.0 mg/kg/injection, schedule: Q01DX005 (ip), vehicle: acid diluted with saline 94 % of control | endpoint: median survival time, dose: 100.0 mg/kg/injection, schedule: Q01DX009 (ip), vehicle: other 121 % of control

CC12CCC3C4CCC(=O)C=C4CCC3C1CCC2O (stereo not drawn)
inactive: [5] 101 % of control | [12] 96 % of control | [13] 101 % of control

NCCN.[Ni+2].[O-]c1ccccc1[O-].[O-]c1ccccc1[O-]
inactive: endpoint: mean survival time, dose: 0.78 mg/kg/injection, schedule: Q01DX009 (ip), vehicle: other 96 % of control | endpoint: mean survival time, dose: 1.56 mg/kg/injection, schedule: Q01DX009 (ip), vehicle: other 93 % of control | endpoint: mean survival time, dose: 3.13 mg/kg/injection, schedule: Q01DX009 (ip), vehicle: other 108 % of control | endpoint: mean survival time, dose: 6.25 mg/kg/injection, schedule: Q01DX009 (ip), vehicle: other 112 % of control | endpoint: mean survival time, dose: 12.5 mg/kg/injection, schedule: Q01DX009 (ip), vehicle: other 98 % of control
